In patent publication US10093938B2, “Regulated switch for gene expression” (The Johns Hopkins University, priority 2014, dated 2018):

Tests used:
Format in all cases: cell-based, Saccharomyces cerevisiae
[1] = tested on: cam-TA; assay: camphor-Off system with ADE2 reporter, growth on SC-Ade
Description: FIG. 4. […] The cells were 10-fold diluted in across each row.
Another gene ADE2 (SEQ ID No. 10) was used to further evaluate the camphor-Off system. Specifically, we investigated availability of the system to complement the adenine-auxotrophy in a camphor-dependent manner. […] On the other hand, another strain camA-TA, which had cam-TA differently from camA-EmV, grew in […] SC-Ade media (FIG. 4B). […] The reversion frequency is approximately 10^−3. The behavior of each strain was thoroughly consistent with the schematic model of the camphor-system (FIG. 2).

[2] = target: T1, tTA (TetR-VP16 fusion) (Escherichia coli, UniProt P04483); assay: Orthogonality: Tet-Off GFP reporter in strain BY-TeCaOFF (microscopy); settings: 25 μM, 1 day in SC medium
T1 construct: expressed in transfected cells; host or cells: Saccharomyces cerevisiae strain BY-TeCaOFF (integrated pSIB527, CMV promoter)
Description: (§1) FIG. 6. Independent regulation of fluorescent reporters, RFP and GFP, with camphor-Off and Tet-Off systems. (A) pSIB859 can be used for integrating the camphor-Off system at a single transformation. Its derivative plasmid pSIB872 carries mCherry as a reporter. (B) Plasmid pSIB498 for the Tet-Off system. Its derivative pSIB527 carries gfp as a reporter. (C)-(F) Strain BY-TeCaOFF carries both pSIB872 and pSIB527. Cell images in SC medium (C), SC with camphor (D), SC with Dox (E), and SC with camphor and Dox. The top, middle, and bottom rows represent images of RFP, GFP, and DIC, respectively. Strain BY-TeCaOFF was grown for 1 day in SC medium with the indicated compounds.
(§2) The experiments in this section were performed to examine whether the camphor-Off system was orthogonal/compatible with the Tet-Off system in a yeast strain. Firstly, we developed new two acceptor vectors: one was used for the camphor-Off switch and the other was the Tet-Off switch. […]
(§3) Cells were viewed with an Axioskop-2 microscope (Carl Zeiss, Oberkochen, Germany) equipped with an X-cite120 light source (ExFo, Ontario, Canada) and a fluorescence filter set. A 100× objective and AxioVision software were used to capture fluorescence and differential interference contrast (DIC) images.

[3] = tested on: cam-TA; settings: BY-TeCaOFF
Description: as §1, §2, §3

[4] = tested on: cam-TA; assay: camphor-Off switch, GFP reporter (flow cytometry) in strain camG-TA
Method: To evaluate the performance of the system, we used GFP as a reporter.
However, another strain camG-TA that was constructed by introducing the […] expression cassette into the cam-TA strain produced significant amounts of GFP (FIG. 3C). From this, we conclude that cam-TA binds to camO and can activate the transcription of the reporter gene gfp.
Subsequently, the kinetics of the system was investigated using the camG-TA strain.
Cellular fluorescence from GFP was determined using a LSRII flow cytometer (Becton Dickinson, Franklin Lakes, N.J.) equipped with 488-nm argon ion laser (blue laser) and a 530/30-filter. All samples were suspended in sterile water, and 10,000 cells were analyzed per sample. Data acquisition and analysis were performed using FACSDiva software (Becton Dickinson) and FlowJo (Tree Star, Ashland, Oreg.).

Chain of cam-TA (as listed by the source): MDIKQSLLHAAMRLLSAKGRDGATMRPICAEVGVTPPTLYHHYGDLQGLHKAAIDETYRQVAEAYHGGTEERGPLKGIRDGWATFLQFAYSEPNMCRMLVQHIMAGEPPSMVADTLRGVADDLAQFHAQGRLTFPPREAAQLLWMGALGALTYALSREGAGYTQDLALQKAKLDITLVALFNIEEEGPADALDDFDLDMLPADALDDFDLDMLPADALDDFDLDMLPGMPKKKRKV

## D-Camphor
[1]; 100 μM camphor, 1 day at 30° C., camPr-ADE2
  growth of strain camA-TA on SC-Ade media that contained camphor: hardly proliferated at all
[1]; camA-TA on SC-Ade media containing camphor
  reversion frequency: approximately 10^−3
[2]
  the other fluorescence (GFP, Tet-Off) on addition of camphor alone: detected robustly
[3]; 25 μM, 1 day in SC medium
  corresponding reporter protein (mCherry, camphor-Off) on addition of the drug: drastic decrease
[3]; camphor and Dox 25 μM each
  expression of mCherry reporter when both camphor and Dox were supplied: repressed
[4]; GFP reporter, camG-TA strain
  effective concentration for the camphor-Off system: 25 µM
[4]; camG-TA strain in SC medium, camPr-gfp reporter
  camphor concentration in the presence of which the GFP signal drastically decreased: ≥ 25 µM
[4]; camG-TA strain in the presence of camphor
  period over which GFP intensity went to almost the same level as that of BY4741: 7 h
